Reference: patent US7494714B2, “Surfaces that resist the adsorption of biological species” (President & Fellows of Harvard College, priority 2000, dated 2009)
Like-named read-outs stand apart in the source and are kept apart here.

Columns and labels:
fibrinogen = biological target: T1, fibrinogen (Bos taurus, UniProt P02672+P02676+P12799); assay: SPR adsorption of fibrinogen to SAMs / grafted polymer films; type: binding, bovine; conditions: for % Fiboff (percent decrease in adsorbed protein during 10 minute PBS wash) / dR/dton fibrinogen (maximum initial rate of adsorption) / % MLfib 3 min / % MLfib 30 min: mixed SAM —CONRR′/—CO2H; for % MLfib 3 min: 1 mg/mL fibrinogen flowed 3 min, relative to —CONH(CH2)10CH3/—CO2H SAM; for % MLfib 30 min: 1 mg/mL fibrinogen flowed 30 min
T1 sequence (P02672 20-615): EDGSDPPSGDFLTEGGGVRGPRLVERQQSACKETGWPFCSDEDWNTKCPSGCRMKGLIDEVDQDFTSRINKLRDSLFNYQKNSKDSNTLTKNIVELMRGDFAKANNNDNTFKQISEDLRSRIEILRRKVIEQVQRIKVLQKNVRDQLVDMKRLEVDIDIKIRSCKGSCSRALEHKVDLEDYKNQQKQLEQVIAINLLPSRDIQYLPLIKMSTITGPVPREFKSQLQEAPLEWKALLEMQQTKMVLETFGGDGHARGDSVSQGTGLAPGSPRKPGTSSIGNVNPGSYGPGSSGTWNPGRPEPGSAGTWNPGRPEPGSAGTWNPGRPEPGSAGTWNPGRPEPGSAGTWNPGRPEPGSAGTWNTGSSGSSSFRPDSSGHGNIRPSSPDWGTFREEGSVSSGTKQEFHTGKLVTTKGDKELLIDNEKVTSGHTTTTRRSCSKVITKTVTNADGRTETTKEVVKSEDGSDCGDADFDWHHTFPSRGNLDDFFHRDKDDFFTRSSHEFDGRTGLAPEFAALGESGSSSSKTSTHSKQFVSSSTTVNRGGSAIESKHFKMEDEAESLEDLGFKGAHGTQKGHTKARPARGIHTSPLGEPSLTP
T1 sequence (P02676 1-468): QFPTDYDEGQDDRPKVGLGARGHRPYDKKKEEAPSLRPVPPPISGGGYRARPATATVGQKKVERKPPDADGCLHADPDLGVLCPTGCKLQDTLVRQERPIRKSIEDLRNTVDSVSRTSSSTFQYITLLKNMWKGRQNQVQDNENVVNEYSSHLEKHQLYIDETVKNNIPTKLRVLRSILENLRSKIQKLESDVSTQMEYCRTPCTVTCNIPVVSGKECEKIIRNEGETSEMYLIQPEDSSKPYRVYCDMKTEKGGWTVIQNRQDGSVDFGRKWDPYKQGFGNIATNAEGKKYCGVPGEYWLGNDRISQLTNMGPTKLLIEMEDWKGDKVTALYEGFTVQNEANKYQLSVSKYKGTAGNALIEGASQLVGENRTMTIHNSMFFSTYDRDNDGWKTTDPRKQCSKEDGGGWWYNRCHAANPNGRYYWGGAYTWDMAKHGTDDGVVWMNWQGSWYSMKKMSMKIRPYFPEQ
T1 sequence (P12799 25-444): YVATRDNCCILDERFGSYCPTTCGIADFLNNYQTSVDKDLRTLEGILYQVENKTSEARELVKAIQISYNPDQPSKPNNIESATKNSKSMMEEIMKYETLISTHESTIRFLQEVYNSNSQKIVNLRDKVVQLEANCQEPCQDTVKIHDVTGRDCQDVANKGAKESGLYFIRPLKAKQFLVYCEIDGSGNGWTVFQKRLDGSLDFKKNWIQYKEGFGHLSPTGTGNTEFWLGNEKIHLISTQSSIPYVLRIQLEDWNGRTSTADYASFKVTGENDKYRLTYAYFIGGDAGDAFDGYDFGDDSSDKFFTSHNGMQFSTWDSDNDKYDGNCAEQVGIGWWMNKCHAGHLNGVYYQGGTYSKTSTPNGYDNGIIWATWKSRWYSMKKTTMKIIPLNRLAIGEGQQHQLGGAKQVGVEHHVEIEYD

lysozyme = lysozyme (Gallus gallus, UniProt P00698); assay: SPR adsorption of lysozyme to SAMs / grafted polymer films; type: binding; conditions: for % Lysoff (percent decrease in adsorbed protein during 10 minute PBS wash) / dR/dton lysozyme (maximum initial rate of adsorption) / % MLlys 3 min / % MLlys 30 min: mixed SAM —CONRR′/—CO2H; for % MLlys 3 min: 1 mg/mL lysozyme flowed 3 min; for % MLlys 30 min: 1 mg/mL lysozyme flowed 30 min
Sequence of lysozyme (P00698 19-147): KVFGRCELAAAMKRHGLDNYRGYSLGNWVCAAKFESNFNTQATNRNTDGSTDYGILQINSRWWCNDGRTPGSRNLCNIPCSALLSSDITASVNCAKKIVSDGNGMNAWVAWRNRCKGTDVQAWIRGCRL

[1] = Contact angle of deionized water under cyclooctane; type: physicochemical
[2] = biological target: T2, Carbonic anhydrase II (bovine) (Bos taurus, UniProt P00921); assay: SPR binding of CA to immobilised benzene sulfonamide ligands
T2 construct: purchased Sigma (St. Louis, Mo.)
T2 sequence (P00921 whole entry): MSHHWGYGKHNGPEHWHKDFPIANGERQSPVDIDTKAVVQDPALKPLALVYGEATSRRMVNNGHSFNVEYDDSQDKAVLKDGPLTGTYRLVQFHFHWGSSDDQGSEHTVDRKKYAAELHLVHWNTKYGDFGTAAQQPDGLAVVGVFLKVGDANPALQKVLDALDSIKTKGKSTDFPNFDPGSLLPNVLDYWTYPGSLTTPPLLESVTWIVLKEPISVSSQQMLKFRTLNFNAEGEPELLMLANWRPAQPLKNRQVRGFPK
Experimental: Curve 1: CA (5 μM) with a mixture of proteins (each at 0.2 mg/mL) including fibrinogen, RNase, lysozyme, and myoglobin; Curve 2: CA (5 μM); Curve 3: a mixture of proteins as in 1 without CA; Curve 4: CA (5 μM) with 1 mM soluble benzenesulfonamide ligand.

CA = CA (Bos taurus, UniProt P00921); conditions: soluble ligand; cited from earlier work
Sequence of CA (P00921 whole entry): as above

[3] = test system: mixture of fibrinogen, myoglobin, lysozyme, and RNase; assay: SPR nonspecific adsorption from a mixture of proteins; type: binding; conditions: mixed SAM presenting 13 and —CONH(CH2CH2O)6H/—CO2H groups
[4] = fibrinogen, single-component SAMs (a) and mixed SAMs (b)
[5] = lysozyme, single-component SAMs (a) and mixed SAMs (b)

Row | Compound | % Fiboff (percent decrease in adsorbed protein during 10 minute PBS wash) (fibrinogen) [%] | dR/dton fibrinogen (maximum initial rate of adsorption) (fibrinogen) [RU/sec] | % MLfib 3 min (fibrinogen) [%] | % MLfib 30 min (fibrinogen) [%] | % Lysoff (percent decrease in adsorbed protein during 10 minute PBS wash) (lysozyme) [%] | dR/dton lysozyme (maximum initial rate of adsorption) (lysozyme) [RU/sec] | % MLlys 3 min (lysozyme) [%] | % MLlys 30 min (lysozyme) [%] | θco sessile ([1]; mixed SAM) [degrees] | other results
1 | CNCCN(C)C | 13 ± 2 | 140 ± 40 | 23 ± 4 | 40 ± 2 | 300 ± 30 | 400 ± 200 | 1.9 ± 0.1 | 14 ± 2 | 49 | –
2 | CNCCN(C)C(=O)N(C)C | 15 ± 2 | 60 ± 30 | 5.9 ± 0.2 | 25 ± 1 | 160 ± 10 | 670 ± 50 | 2.1 ± 0.2 | 11 ± 0.5 | 62 | –
3 | CNCCN(C)P(=O)(N(C)C)N(C)C | 19 ± 1 | 120 ± 20 | 0.8 ± 0.1 | 4.3 ± 0.6 | 660 ± 15 | 70 ± 30 | 0.2 ± 0.2 | 0.3 ± 0.2 | 63 | –
4 | NCCOCCOCCO [Entry 3b, H(OCH2CH2)3NH2, reference compound] | – | – | – | – | – | – | – | – | – | % ML 30 min (fibrinogen; [4]): 2%; dR/dt on (fibrinogen; [4]): 30 RU/sec; % ML 3 min (fibrinogen; fibrinogen, single-component SAMs (a, RSH) and mixed SAMs (b, RNH2)): 1%; % Fib off (fibrinogen; single-component SAMs (a) and mixed SAMs (b)): 11%; % ML 3 min (lysozyme; lysozyme, footnote b (30 minutes), single-component SAMs (a) and mixed SAMs (b)): 1%; % ML 3 min (lysozyme; [5]): 1%; dR/dt on (lysozyme; [5]): 85 RU/sec; θco sessile [1]: 50 degrees
5 | NC(CCCO)(CCCO)CCCO [H2NC(CH2CH2CH2OH)3] | 14 ± 0.5 | 350 ± 220 | 34 ± 2.2 | 57 ± 0.2 | 140 ± 2 | 1400 ± 110 | 30 ± 0.6 | 73 ± 5 | 70 | –
6 | COC(=O)CNC(=O)c1ccc(S(N)(=O)=O)cc1 [benzene sulfonamide 14, H2NSO2C6H4—CONHCH2CO2CH3, reference compound] | – | – | – | – | – | – | – | – | – | competitive inhibition of binding of CA to the mixed SAM presenting 13 ([2]; 1 mM added to the CA-containing solution): completely inhibited; Kd (CA): 63 µM
7 | NCCOCCOCCOCCOCCOCCOCC(=O)NCCCCCCNC(=O)c1ccc(S(N)(=O)=O)cc1 [compound 13, [6-(2-{2-[2-(2-{2-[2-(2-Amino-ethoxy)-ethoxy]-ethoxy}-ethoxy)-ethoxy]-ethoxy}-ethanoylamino)-hexyl]-4-sulfamoyl-benzamide] | – | – | – | – | – | – | – | – | – | reversibility of binding of CA ([2]; CA 5 μM in PBS, mixed SAM presenting 13): > 90%; kon ([2]; SPR, CA 5 μM in PBS, surfaces of this work (entry 4, LPEI entries 6-9)): 13000 M^-1S^-1; koff ([2]; SPR, surfaces of this work (entry 4, LPEI entries 6-9)): 0.0054 S^-1; nonspecific adsorption of protein [3]: did not adsorb a detectable amount of protein
8 | H(CH3)NCH2CH(OCH3)2 | 15 ± 4 | 510 ± 400 | 16 ± 2 | 36 ± 1 | 190 ± 2 | 740 ± 300 | 4.6 ± 2 | 19 ± 5 | 70 | –
